Source: patent publication US8476197B2, “Aminopropenoates as fungicides” (priority 2009, dated 2013)
Marks after values point to notes of the source that are not given here.

details: pH 2.3

| Compound | Log P |
| --- | --- |
| CCOC(=O)C(C#N)=C(NC(C)CSC)c1cccnc1C (centres unmarked) [Compound 648] | 2.2 |
| CCOC(=O)C(C#N)=C(NC(C)CSC)c1cccnc1OC (centres unmarked) [Compound 687] | 2.96 |

same assay, conditions: pH 2.7

| Log P | Compound |
| --- | --- |
| 2.08^[a] | CCOC(=O)C(C#N)=C(NC(C)C(=O)NC)c1sccc1Cl (centres unmarked) [Compound 645] |
| 2.96^[a] | CCOC(=O)C(C#N)=C(NC(C)C(=O)OC)c1sccc1Br (centres unmarked) [Compound 649] |
| 3.67^[a] | CCOC(=O)C(C#N)=C(NC(C(=O)OC)C(C)C)c1sccc1Br (centres unmarked) [Compound 650] |
| 1.94^[a] | CCOC(=O)C(C#N)=C(NC(C)C(N)=O)c1sccc1Br (centres unmarked) [Compound 652] |
| 2.31^[a] | CCOC(=O)C(C#N)=C(NC(C)C(=O)OC)c1cn(C)nc1C(F)F (centres unmarked) [Compound 673] |
| 2.84^[a] | CCOC(=O)C(C#N)=C(NC(C(=O)OC)C(C)C)c1cn(C)nc1C(F)F (centres unmarked) [Compound 675] |
| 3.64^[a] | CCOC(=O)C(C#N)=C(NC(C(=O)OC)C(C)C)c1sc(C)nc1C(F)(F)F (centres unmarked) [Compound 682] |
| 4.31^[a] | C=CC(COCc1ccccc1)NC(=C(C#N)C(=O)OCC)c1sccc1Br (centres unmarked) [Compound 689] |
| 3.89^[a] | C=CC(COCc1ccccc1)NC(=C(C#N)C(=O)OC)c1sc(C)nc1C(F)(F)F (centres unmarked) [Compound 690] |
| 4.21^[a] | C=CC(COCc1ccccc1)NC(=C(C#N)C(=O)OCC)c1sc(C)nc1C(F)(F)F (centres unmarked) [Compound 692] |
| 3.37^[a] | CCOC(=O)C(C#N)=C(NC(C)(C)C(=O)OC)c1sccc1C(F)(F)F [Compound 694] |
| 2.9^[a] | COC(=O)C(C#N)=C(NC(C)(C)C(=O)OC)c1sc(C)nc1C(F)(F)F [Compound 695] |
| 1.97^[a] | CCOC(=O)C(C#N)=C(NC(C)C(N)=O)c1nc(Cl)ccc1Cl (centres unmarked) [Compound 698] |
| 3.8^[a] | CCOC(=O)C(C#N)=C(NC(C)(C)CSC)c1sccc1C(F)(F)F [Compound 700] |
| 3.73^[a] | CCOC(=O)C(C#N)=C(NC(C)(C)CSC)c1sccc1Br [Compound 701] |
| 3.62^[a] | CCOC(=O)C(C#N)=C(NC(C)(C)CSC)c1sc(C)nc1C(F)(F)F [Compound 704] |
| 1.1^[a] | CCOC(=O)C(C#N)=C(NC(C)CN)c1sccc1Br (centres unmarked) [Compound 707] |

| Log P | Compound |
| --- | --- |
| 3.82^[a] | CCOC(=O)C(C#N)=C(NC(C(=O)OC)C(C)C)c1sc(Cl)nc1Cl (centres unmarked) [Compound 710] |
| 2.71^[a] | CCOC(=O)C(C#N)=C(NC(C(=O)OC)C(C)C)c1cn(C)nc1OC (centres unmarked) [Compound 711] |
| 3.09^[a] | CCOC(=O)C(C#N)=C(NC(C(=O)OC)C(C)C)c1cn(C)nc1C(F)(F)F (centres unmarked) [Compound 713] |
| 3.71^[a] | CCOC(=O)C(C#N)=C(NC(C(=O)OC)C(C)C)c1ccsc1Br (centres unmarked) [Compound 716] |
| 4.86^[a] | CCOC(=O)C(C#N)=C(NC(C)COc1c(C)cccc1C)c1ccsc1Br (centres unmarked) [Compound 718] |
| 2.94^[a] | C=Cc1nn(C)cc1C(NC(C(=O)OC)C(C)C)=C(C#N)C(=O)OCC (centres unmarked) [Compound 719] |
| 3.43^[a] | CCOC(=O)C(C#N)=C(NC(C(=O)OC)C(C)C)c1cn(C)cc1C(F)(F)F (centres unmarked) [Compound 726] |
| 1.8^[a] | CCOC(=O)C(C#N)=C(NC(C)C(N)=O)c1cnccc1C(F)(F)F (centres unmarked) [Compound 727] |
| 2.08^[a] | CCOC(=O)C(C#N)=C(NC(C)C(=O)NC)c1ccnc(Cl)c1Cl (centres unmarked) [Compound 730] |
| 2.07^[a] | CCOC(=O)C(C#N)=C(NC(C(N)=O)C(C)C)c1cccnc1Cl (centres unmarked) [Compound 732] |
| 1.37^[a] | CCOC(=O)C(C#N)=C(NC(C)C(N)=O)c1ccncc1F (centres unmarked) [Compound 733] |
| 3.71^[a] | CCOC(=O)C(C#N)=C(NC(C)COc1ccc(C)cc1)c1cn(C)nc1C(F)F (centres unmarked) [Compound 735] |
| 2.31^[a] | COC(=O)C(C#N)=C(NC(C)(C)CF)c1cccnc1Cl [Compound 744] |
| 2.8^[a] | CCOC(=O)C(C#N)=C(NC(C)CF)c1cc(C)oc1C (centres unmarked) [Compound 745] |
| 3.49^[a] | CCOC(=O)C(C#N)=C(NC(C)CF)c1cc(Cl)sc1Cl (centres unmarked) [Compound 747] |
| 2.23^[a] | CCOC(=O)C(C#N)=C(NC(C)CF)c1cn(C)nc1OC (centres unmarked) [Compound 748] |
| 2.95^[a] | CCOC(=O)C(C#N)=C(NC(C)CF)c1cn(C)cc1C(F)(F)F (centres unmarked) [Compound 752] |

Further lines, the compound ahead of its results:

| Compound | Log P |
| --- | --- |
| CCOC(=O)C(C#N)=C(NC(C)C(=O)NC)c1ccsc1I (centres unmarked) [Compound 646] | 2.07^[a] |
| CCOC(=O)C(C#N)=C(NC(C)C(N)=O)c1ccsc1I (centres unmarked) [Compound 647] | 1.91^[a] |
| CCOC(=O)C(C#N)=C(NC(C)C(=O)OC)c1sccc1C(F)(F)F (centres unmarked) [Compound 657] | 3.11^[a] |
| CCOC(=O)C(C#N)=C(NC(C(=O)OC)C(C)C)c1sccc1C(F)(F)F (centres unmarked) [Compound 659] | 3.62^[a] |
| COC(=O)C(C#N)=C(NC(C)C(=O)OC)c1sc(C)nc1C(F)(F)F (centres unmarked) [Compound 665] | 2.62^[a] |
| COC(=O)C(C#N)=C(NC(C(=O)OC)C(C)C)c1sc(C)nc1C(F)(F)F (centres unmarked) [Compound 667] | 3.29^[a] |
| CCOC(=O)C(C#N)=C(NC(C)C(=O)OC)c1sc(C)nc1C(F)(F)F (centres unmarked) [Compound 680] | 2.94^[a] |
| CCOC(=O)C(C#N)=C(NC(C)C(=O)Nc1ccc2ccccc2c1)c1cn(C)nc1C(F)F (centres unmarked) [Compound 683] | 3.31^[a] |
| CCOC(=O)C(C#N)=C(NC(C)COc1c(C)cccc1C)c1cn(C)nc1C(F)F (centres unmarked) [Compound 684] | 3.96^[a] |
| CCOC(=O)C(C#N)=C(NC(C)COC)c1cn(C)nc1C(F)F (centres unmarked) [Compound 685] | 2.41^[a] |
| CCOC(=O)C(C#N)=C(NC(C)C(=O)OCC)c1cn(C)nc1C(F)F (centres unmarked) [Compound 686] | 2.62^[a] |
| C=CC(COCc1ccccc1)NC(=C(C#N)C(=O)OCC)c1sccc1C(F)(F)F (centres unmarked) [Compound 688] | 4.36^[a] |
| C=CC(COCc1ccccc1)NC(=C(C#N)C(=O)OCC)c1cn(C)nc1C(F)F (centres unmarked) [Compound 691] | 3.51^[a] |
| CCOC(=O)C(C#N)=C(NC(C)(C)C(=O)OC)c1sccc1Br [Compound 693] | 3.23^[a] |
| CCOC(=O)C(C#N)=C(NC(C)(C)C(=O)OC)c1cn(C)nc1C(F)F [Compound 696] | 2.51^[a] |
| CCOC(=O)C(C#N)=C(NC(C)(C)C(=O)OC)c1sc(C)nc1C(F)(F)F [Compound 697] | 3.23^[a] |
| CCOC(=O)C(C#N)=C(NC(C)C(N)=O)c1ncc(Cl)cc1Cl (centres unmarked) [Compound 699] | 2.01^[a] |
| COC(=O)C(C#N)=C(NC(C)(C)CSC)c1sc(C)nc1C(F)(F)F [Compound 702] | 3.27^[a] |
| CCOC(=O)C(C#N)=C(NC(C)(C)CSC)c1cn(C)nc1C(F)F [Compound 703] | 2.84^[a] |
| CCOC(=O)C(C#N)=C(NC(C)C(N)=O)c1cccnc1C(F)(F)F (centres unmarked) [Compound 705] | 1.91^[a] |
| CCOC(=O)C(C#N)=C(NC(C)C(=O)NC)c1cccnc1C(F)(F)F (centres unmarked) [Compound 706] | 2.05^[a] |
| CCOC(=O)C(C#N)=C(NC(C)C(N)=O)c1nc(SC)ncc1Br (centres unmarked) [Compound 709] | 2.13^[a] |
| CCOC(=O)C(C#N)=C(NC(C(=O)OC)C(C)C)c1cc(Cl)sc1Cl (centres unmarked) [Compound 712] | 4.14^[a] |

| Compound | Log P |
| --- | --- |
| CCOC(=O)C(C#N)=C(NC(C)COC)c1ccsc1Br (centres unmarked) [Compound 714] | 3.21^[a] |
| CCOC(=O)C(C#N)=C(NC(C(=O)OC)C(C)C)c1ccsc1Br (centres unmarked) [Compound 715] | 3.48^[a] |
| CCOC(=O)C(C#N)=C(NC(C)C(=O)Nc1ccc2ccccc2c1)c1ccsc1Br (centres unmarked) [Compound 717] | 3.94^[a] |
| CCOC(=O)C(C#N)=C(NC(C)C(=O)NC)c1cc(Cl)ncc1Cl (centres unmarked) [Compound 720] | 2.19^[a] |
| CCOC(=O)C(C#N)=C(NC(C)C(N)=O)c1cc(Cl)ncc1Cl (centres unmarked) [Compound 721] | 2.64^[a] |
| CCOC(=O)C(C#N)=C(NC(C)C(N)=O)c1ccncc1Cl (centres unmarked) [Compound 722] | 1.65^[a] |
| CCOC(=O)C(C#N)=C(NC(C)C(=O)NC)c1ccncc1Cl (centres unmarked) [Compound 723] | 1.78^[a] |
| CCOC(=O)C(C#N)=C(NC(C)C(=O)NC)c1cccnc1C(F)F (centres unmarked) [Compound 724] | 1.62^[a] |
| CCNC(=O)C(C)NC(=C(C#N)C(=O)OCC)c1cccnc1Cl (centres unmarked) [Compound 728] | 2.1^[a] |
| CCOC(=O)C(C#N)=C(NC(C)C(N)=O)c1ccnc(Cl)c1Cl (centres unmarked) [Compound 729] | 1.88^[a] |
| CCOC(=O)C(C#N)=C(NC(C)COCc1ccc(C(F)(F)F)cc1)c1cccnc1Cl (centres unmarked) [Compound 731] | 4.2^[a] |
| CCOC(=O)C(C#N)=C(NC(C)COC)c1sccc1Br (centres unmarked) [Compound 734] | 3.21^[a] |
| CCOC(=O)C(C#N)=C(NC(C)COc1ccc(F)cc1)c1cn(C)nc1C(F)F (centres unmarked) [Compound 736] | 3.42^[a] |
| CCOC(=O)C(C#N)=C(NC(C)C(C)Sc1ccccc1)c1cn(C)nc1C(F)F (centres unmarked) [Compound 737] | 3.87^[a] |
| CCOC(=O)C(C#N)=C(NC(C)COc1ccccc1)c1cn(C)nc1C(F)F (centres unmarked) [Compound 738] | 3.37^[a] |
| CCOC(=O)C(C#N)=C(NC(C)COCc1ccccc1)c1cn(C)nc1C(F)F (centres unmarked) [Compound 739] | 3.48^[a] |
| CCOC(=O)C(C#N)=C(NC(C)COCc1ccccc1F)c1cn(C)nc1C(F)F (centres unmarked) [Compound 740] | 3.48^[a] |
| CCOC(=O)C(C#N)=C(NC(C)COc1ccccc1Cl)c1cn(C)nc1C(F)F (centres unmarked) [Compound 741] | 3.6^[a] |
| CCOC(=O)C(C#N)=C(NC(C)COc1cccc(OC)c1)c1cn(C)nc1C(F)F (centres unmarked) [Compound 742] | 3.35^[a] |
| COC(=O)C(C#N)=C(NC(C)CF)c1cccnc1Cl (centres unmarked) [Compound 746] | 2.05^[a] |
| C=Cc1nn(C)cc1C(NC(C)CF)=C(C#N)C(=O)OCC (centres unmarked) [Compound 749] | 2.25^[a] |
| CCOC(=O)C(C#N)=C(NC(C)CF)c1ccncc1Cl (centres unmarked) [Compound 750] | 2.42^[a] |
| CCOC(=O)C(C#N)=C(NC(C)CF)c1cn(C)nc1C(F)(F)F (centres unmarked) [Compound 751] | 2.72^[a] |

same assay, conditions: pH 7.5

| Compound | Log P |
| --- | --- |
| CCOC(=O)C(C#N)=C(NC(C)CSC)c1cccnc1C (centres unmarked) [Compound 648] | 2.44 |
| CCOC(=O)C(C#N)=C(NC(C)CSC)c1cccnc1OC (centres unmarked) [Compound 687] | 2.95 |
| CCOC(=O)C(C#N)=C(NC(C)C(N)=S)c1cccnc1Cl (centres unmarked) [Compound 708] | 1.87 |
| CCOC(=O)C(C#N)=C(NC(C)CCl)c1cccnc1Cl (centres unmarked) [Compound 743] | 2.7 |
